Test results as given in US10294202B2, “Pyrrolidinones as herbicides” (FMC Corporation, priority 2013, dated 2019).

What was measured:
barnyardgrass = assay: Test A pre-/postemergence herbicide test; type: in vivo, Echinochloa crus-galli; settings: for Barnyardgrass plant response rating: Preemergence, visual rating on 0 to 100 scale (0 no effect, 100 complete control)
How it was run: (§1)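 Seeds in loam–sand blend received preemergence directed soil spray; separately, plants 2–10 cm at one- to two-leaf stage received postemergence spray, both with test chemicals in non-phytotoxic solvent with surfactant. After ~10 days in greenhouse, injury rated visually against untreated controls, 0 (no effect) to 100 (complete control).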

giant foxtail = assay: Test A pre-/postemergence herbicide test; type: in vivo, Setaria faberii; settings: for Foxtail, Giant plant response rating: Preemergence, visual rating on 0 to 100 scale (0 no effect, 100 complete control)
How it was run: as §1

pigweed = assay: Test A pre-/postemergence herbicide test; type: in vivo, Amaranthus retroflexus; settings: for Pigweed plant response rating: Preemergence, visual rating on 0 to 100 scale (0 no effect, 100 complete control)
How it was run: as §1

galium = assay: Test C pre-/postemergence herbicide test; type: in vivo, Galium aparine; settings: Preemergence; for Galium plant response rating: 31 g ai/ha
How it was run: (§2)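 Pre-emergence: seeds sown in loam/sand blend and treated with compound in surfactant-containing solvent. Post-emergence: plants at 2–18 cm (1- to 4-leaf stage) in peat-based medium sprayed with the same formulation. Visual rating versus controls after 13–15 days in greenhouse, scale 0 (no effect) to 100 (complete control).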

crabgrass, large = assay: Test C pre-/postemergence herbicide test; type: in vivo, Digitaria sanguinalis; settings: Preemergence; for Crabgrass, Large plant response rating: 31 g ai/ha
How it was run: as §2

foxtail, giant = assay: Test C pre-/postemergence herbicide test; type: in vivo, Setaria faberii; settings: Preemergence; for Foxtail, Giant plant response rating: 31 g ai/ha
How it was run: as §2

lambsquarters = assay: Test C pre-/postemergence herbicide test; type: in vivo, Chenopodium album; settings: Preemergence; for Lambsquarters plant response rating: 31 g ai/ha, scale 0 to 100, 0 is no effect and 100 is complete control
How it was run: as §2

morningglory = assay: Test C pre-/postemergence herbicide test; type: in vivo, Ipomoea coccinea; settings: Preemergence; for Morningglory plant response rating: 31 g ai/ha, scale 0 to 100, 0 is no effect and 100 is complete control
How it was run: as §2

oat, wild = assay: Test C pre-/postemergence herbicide test; type: in vivo, Avena fatua; settings: Preemergence
How it was run: as §2

velvetleaf = assay: Test C pre-/postemergence herbicide test; type: in vivo, Abutilon theophrasti; settings: Preemergence; for Velvetleaf plant response rating: 31 g ai/ha, scale 0 to 100, 0 is no effect and 100 is complete control
How it was run: as §2

[1] = Postemergence, 125 g ai/ha, 0 to 100 scale, 0 no effect, 100 complete control
[2] = Postemergence, 500 g ai/ha, 0 to 100 scale (0 no effect, 100 complete control)
[3] = preemergence, 500 g ai/ha, 0 to 100 scale (0 no effect, 100 complete control)
[4] = preemergence, 500 g ai/ha, 0 to 100 scale
[5] = scale 0 to 100, 0 is no effect and 100 is complete control
[6] = 125 g ai/ha, scale 0 to 100 (0 no effect, 100 complete control)
[7] = 250 g ai/ha, scale 0 to 100 (0 no effect, 100 complete control)
[8] = scale 0 to 100 (0 no effect, 100 complete control)

Row | SMILES | Plant response rating, Barnyardgrass (barnyardgrass; [1]) | Plant response rating, Barnyardgrass (barnyardgrass; [2]) | Barnyardgrass plant response rating (barnyardgrass; 125 g ai/ha) | Plant response rating, Barnyardgrass (barnyardgrass; [3]) | Plant response rating, Foxtail, Giant (giant foxtail; [1]) | Plant response rating, Foxtail, Giant (giant foxtail; [2]) | Foxtail, Giant plant response rating (giant foxtail; 125 g ai/ha) | Plant response rating, Foxtail, Giant (giant foxtail; [4]) | Plant response rating, Pigweed (pigweed; [1]) | Plant response rating, Pigweed (pigweed; [2]) | Pigweed plant response rating (pigweed; 125 g ai/ha) | Plant response rating, Pigweed (pigweed; [4]) | Plant response rating, Galium (galium; 62 g ai/ha, scale 0 to 100) | Plant response rating, Galium (galium; [6]) | Plant response rating, Galium (galium; [7]) | Plant response rating, Crabgrass, Large (crabgrass, large; 62 g ai/ha, scale 0 to 100) | Plant response rating, Crabgrass, Large (crabgrass, large; [6]) | Plant response rating, Crabgrass, Large (crabgrass, large; [7]) | Plant response rating, Foxtail, Giant (foxtail, giant; 62 g ai/ha, scale 0 to 100) | Plant response rating, Foxtail, Giant (foxtail, giant; [6]) | also measured
1 | O=C1NCC(c2cccc(OC(F)(F)F)c2)C1C(=O)Nc1cccc(F)c1F (centres unmarked) [Compound 68] | 70 | 80 | 80 | 90 | 80 | 80 | 90 | 90 | 40 | 60 | 0 | 30 | 5 | 90 | 90 | 90 | 95 | 95 | 90 | 90 | Galium plant response rating (galium; [5]): 0; Crabgrass, Large plant response rating (crabgrass, large; [5]): 90; Foxtail, Giant plant response rating (foxtail, giant; [5]): 85; Plant response rating, Foxtail, Giant (foxtail, giant; [7]): 95; Lambsquarters plant response rating (lambsquarters): 55; Plant response rating, Lambsquarters (lambsquarters; 62 g ai/ha, scale 0 to 100): 55; Plant response rating, Lambsquarters (lambsquarters; [6]): 65; Morningglory plant response rating (morningglory): 0; Plant response rating, Morningglory (morningglory; 62 g ai/ha, scale 0 to 100): 0; Plant response rating, Morningglory (morningglory; [6]): 15; Plant response rating, Oat, Wild (oat, wild; [6]): 0; Velvetleaf plant response rating (velvetleaf): 10; Plant response rating, Velvetleaf (velvetleaf; 62 g ai/ha, scale 0 to 100): 10; Plant response rating, Velvetleaf (velvetleaf; [6]): 10
2 | O=C1NCC(c2cccc(Br)c2)C1C(=O)Nc1cccc(F)c1F (centres unmarked) [Compound 64] | 60 | 80 | 80 | 90 | 70 | 80 | 80 | 90 | 0 | 30 | 0 | 0 | 0 | 0 | 0 | 90 | 95 | 95 | 80 | 90 | Galium plant response rating (galium; [8]): 0; Crabgrass, Large plant response rating (crabgrass, large; [8]): 85; Foxtail, Giant plant response rating (foxtail, giant; [8]): 50; Plant response rating, Foxtail, Giant (foxtail, giant; [7]): 98; Plant response rating, Lambsquarters (lambsquarters; 62 g ai/ha, scale 0 to 100): 10; Plant response rating, Lambsquarters (lambsquarters; [6]): 30; Plant response rating, Morningglory (morningglory; 62 g ai/ha, scale 0 to 100): 20; Plant response rating, Morningglory (morningglory; [6]): 20; Plant response rating, Oat, Wild (oat, wild; 62 g ai/ha, scale 0 to 100): 10; Plant response rating, Oat, Wild (oat, wild; [6]): 10; Plant response rating, Velvetleaf (velvetleaf; 62 g ai/ha, scale 0 to 100): 10; Plant response rating, Velvetleaf (velvetleaf; [6]): 10
3 | O=C1NCC(c2cccc(Br)c2)C1C(=O)Nc1ccccc1F (centres unmarked) [Compound 66] | 80 | 80 | 80 | 90 | 70 | 80 | 80 | 90 | 0 | 0 | 0 | 0 | 0 | 0 | 0 | 95 | 98 | 98 | 75 | 85 | Galium plant response rating (galium; [5]): 0; Crabgrass, Large plant response rating (crabgrass, large; [5]): 90; Foxtail, Giant plant response rating (foxtail, giant; [5]): 20; Plant response rating, Foxtail, Giant (foxtail, giant; [7]): 95; Lambsquarters plant response rating (lambsquarters): 0; Plant response rating, Lambsquarters (lambsquarters; 62 g ai/ha, scale 0 to 100): 0; Plant response rating, Lambsquarters (lambsquarters; [6]): 0; Morningglory plant response rating (morningglory): 15; Plant response rating, Morningglory (morningglory; 62 g ai/ha, scale 0 to 100): 25; Plant response rating, Morningglory (morningglory; [6]): 35; Oat, Wild plant response rating (oat, wild; 31 g ai/ha, scale 0 to 100, 0 is no effect and 100 is complete control): 0; Plant response rating, Oat, Wild (oat, wild; 62 g ai/ha, scale 0 to 100): 0; Plant response rating, Oat, Wild (oat, wild; [6]): 0; Velvetleaf plant response rating (velvetleaf): 10; Plant response rating, Velvetleaf (velvetleaf; 62 g ai/ha, scale 0 to 100): 20; Plant response rating, Velvetleaf (velvetleaf; [6]): 25
4 | O=C1NCC(c2ccc3c(c2)OC(F)(F)O3)C1C(=O)Nc1cccc(F)c1F (centres unmarked) [Compound 62] | 70 | 80 | 80 | 80 | 80 | 80 | 80 | 90 | 30 | 70 | 0 | 30 | 0 | 85 | 90 | 90 | 95 | 98 | 80 | 85 | Galium plant response rating (galium; [8]): 0; Crabgrass, Large plant response rating (crabgrass, large; [8]): 85; Foxtail, Giant plant response rating (foxtail, giant; [8]): 65; Plant response rating, Foxtail, Giant (foxtail, giant; [7]): 85; Plant response rating, Lambsquarters (lambsquarters; 62 g ai/ha, scale 0 to 100): 65; Plant response rating, Lambsquarters (lambsquarters; [6]): 70; Plant response rating, Morningglory (morningglory; 62 g ai/ha, scale 0 to 100): 10; Plant response rating, Morningglory (morningglory; [6]): 15; Plant response rating, Oat, Wild (oat, wild; 62 g ai/ha, scale 0 to 100): 40; Plant response rating, Oat, Wild (oat, wild; [6]): 50; Plant response rating, Velvetleaf (velvetleaf; 62 g ai/ha, scale 0 to 100): 20; Plant response rating, Velvetleaf (velvetleaf; [6]): 25
